{"source": "ChEMBL document CHEMBL1255319", "about": "“Predictive values of the human immunodeficiency virus phenotype and genotype and of amprenavir and lopinavir inhibitory quotients in heavily pretreated patients on a ritonavir-boosted dual-protease-inhibitor regimen” (Antimicrob Agents Chemother, 2008)", "key": {"[1]": {"system": "Human immunodeficiency virus 1", "test": "Antiviral activity against HIV1 infected in human", "format": "functional"}, "[2]": {"system": "Human immunodeficiency virus 1", "test": "Antiviral activity against HIV1 infected in human in presence of human serum", "format": "functional"}, "[3]": {"system": "Human immunodeficiency virus", "test": "Antiviral activity in HIV infected in patient having Cmin-corrected GIQ value > 75 assessed as viral copies", "format": "functional"}, "[4]": {"system": "Human immunodeficiency virus", "test": "Antiviral activity in HIV infected in patient having Cmin-corrected GIQ value < 75 assessed as viral copies", "format": "functional"}, "[5]": {"species": "Homo sapiens", "test": "fCmin in HIV1-infected patient at 600 mg, BID measured on week 2 by HPLC", "conditions": "in vivo"}, "[6]": {"test": "Inhibitory quotient, ratio of fCmin to IC90 for HIV1 infected in patient at 600 mg, BID"}, "[7]": {"test": "Inhibitory quotient, ratio of Cmin to IC90 for HIV1 infected in patient in presence of human serum at 600 mg, BID"}}}
{"compound": "CC(C)CN(C[C@@H](O)[C@H](Cc1ccccc1)NC(=O)O[C@H]1CCOC1)S(=O)(=O)c1ccc(N)cc1", "note": "[AMPRENAVIR]", "values": [{"measurement": "IC90", "setting": "[1]", "result": 0.0578, "unit": "µg/mL"}, {"measurement": "IC90", "setting": "[2]", "result": 0.453, "unit": "µg/mL"}, {"measurement": "log10cfu", "setting": "[3]", "result": 1.23, "unit": "log10 copies/ml"}, {"measurement": "log10cfu", "setting": "[4]", "result": 0.19, "unit": "log10 copies/ml"}, {"measurement": "fCmin", "setting": "[5]", "result": 177, "unit": "ng/mL"}, {"measurement": "Ratio", "setting": "[6]", "result": 2.5}, {"measurement": "Ratio", "setting": "[7]", "result": 3.6}]}
